Tested on: Clostridium acetobutylicum
Experiment: antibiotic sensitivity test (OD600 after 24 hours in 96-well plate, anaerobic)
Format: cell-based, Clostridium acetobutylicum strain ATCC 824
Settings: C. acetobutylicum given oxidized feedstock compared to glucose as feedstock; FIG. 2, after 24 hours
Procedure: Bacterial culture conditions and strains have been previously published. All strains and cultures were maintained or grown in an atmosphere of 5.0% H2, 5.0% CO2, and 90.0% N2. Clostridium acetobutylicum strain ATCC 824 was obtained from ATCC and cultured using company protocol at 37° C. into Clostridial growth medium or CGM containing 0.75 g KH2PO4, 0.75 g K2HPO4, 1.0 g NaCl, 0.017 g MnSO4.5H2O, 0.70 g MgSO4.7H2O, 0.01 g FeSO4.7H2O, 2.0 g 1-asparagine, 5.0 g yeast extract, 2.0 g (NH4)2SO4, and 0.5% final concentration of desired carbohydrate—D-glucose, D-galacturonic acid, D-gluconic acid—at pH 6.5. Active cultures from initial growth stock were added to potato glucose medium to be maintained and stored as a spore solution. Potato glucose medium or PGM contains per liter of H2O—150 g grated fresh potato, 10 g D-glucose, 0.5 g (NH4)SO4, and 3 g CaCO3. The medium was boiled for 1 hour and strained through gauze before sterilization and use for culture. […]
The protocol for antibiotic sensitivity test was performed as follows in anaerobic conditions: 200 μL of CGM medium containing either 0.5% D-galacturonate or D-glucose was aliquoted into a sterile Costar® 96-well polystyrene flat bottom plate in triplicate per test condition. […] The optical density of the cultures in the wells were measured at 600 nm via a commercially available plate reader.

## Cc1ncc([N+](=O)[O-])n1CCO [metronidazole]
  antibiotic (metronidazole) susceptibility increase: at least two-fold
